Measured values reported in patent US8557872B2, “Compounds, isomer thereof, or pharmaceutically acceptable salts thereof as vanilloid receptor antagonist; and pharmaceutical compositions containing the same” (Amorepacific Corporation, priority 2008, dated 2013).
Where two headings read alike, the source gives them in different places.

Columns and labels:
[1] = PK study in rats, single oral administration; format: in vivo, rat; set-up: AUC: concentration or dose not given beside the values; settings: for AUC / Cmax / Tmax / half-life: rat, single oral administration, plasma
Method: Pharmacokinetics of compounds in rats were analyzed using the following experiment. Rats were fasted overnight prior to administration and until approximately 4 hours after administration. Rats were given a single oral administration of compound at same dose. Administration volume was 10 ml/kg. Blood samples were collected from the retro-orbital sinus at various times over the following 7 hrs. Immediately after each collection, plasmas were separated from blood cells by centrifugation and stored at −20° C. until the analysis was performed. The plasma samples were analyzed using a reverse phase high-performance chromatography (HPLC) method.

[2] = target: T1, vanilloid receptor (Rattus norvegicus, UniProt O35433); assay: 45Ca influx test (calcium uptake) in primary cultured DRG neurons, capsaicin 0.5 μM; format: cell-based
T1 construct: DRG nerve cells from the primary culture of 2 days were equilibrated by washing 4 times; endogenous in cells; host or cells: primary culture of dorsal root ganglion neurons from neonatal SD rats
Method: 1) Separation of Spinal Dorsal Root Ganglia (DRG) in Newborn Rats and Primary Culture Thereof
Neonatal (2-3 day old or younger than 2-3 day old) SD rats were put in ice for 5 minutes to anesthetize and disinfected with 70% ethanol. […] The DRG were incubated sequentially at 37° C. for 30 mins in 200 U/ml collagenase and 2.5 mg/ml trypsin, separately. The ganglia were washed twice with DME/F12 medium supplemented with 10% horse serum, triturated through a fire-polished Pasteur pipette, filtered through Nitex 80 membrane to obtain single cell suspension and the suspension was washed once more. This was subjected to centrifugation, then resuspended in cell culture medium at certain level of cell density. As the cell culture medium, DME/F12 medium supplemented with 10% horse serum was diluted with identical medium conditioned by C6 glioma cells 2 days on a confluent monolayer (1:1), and NGF (Nerve Growth Factor) was added to adjust 200 ng/ml as final concentration. After the cells were grown 2 days in medium where cytosine arabinoside (Ara-C, 100 μM) was added to kill dividing nonneuronal cells, medium was changed to one without Ara-C. The resuspended cells were plated at a density of 1500-2000 neurons/well onto Terasaki plates previously coated with 10 μg/ml poly-D-ornithine.
2) ^45Ca Influx Experiments
DRG nerve cells from the primary culture of 2 days were equilibrated by washing 4 times with HEPES (10 mM, pH 7.4)-buffered Ca^2+, Mg^2+-free HBSS (H-HBSS). The solution in each well was removed from the individual well. Medium containing the test compound plus capsaicin (final concentration 0.5 μM) and ^45Ca (final concentration 10 μCi/ml) in H-HBSS was added to each well and incubated at room temperature for 10 mins. Terasaki plates were washed five times with H-HBSS and dried at room temperature. To each well, 0.3% SDS (10 μl) was added to elute ^45Ca. After the addition of scintillation cocktail of into each well, the amount of ^45Ca influx into neuron was measured by counting radioactivity.

[3] = Table 2, read-out: T½ (converted)
[4] = rat DRG neurons, capsaicin 0.5 μM, 45Ca, read-out: Antagonist Calcium Uptake Test (IC50)
[5] = Table 3, detection limit 0.100 mcg/ml
[6] = Table 3, comparative compounds having tert-butyl-phenyl, read-out: IC50
[7] = comparison with comparative compounds F and G, read-out: IC50 value

T1 sequence (O35433 whole entry): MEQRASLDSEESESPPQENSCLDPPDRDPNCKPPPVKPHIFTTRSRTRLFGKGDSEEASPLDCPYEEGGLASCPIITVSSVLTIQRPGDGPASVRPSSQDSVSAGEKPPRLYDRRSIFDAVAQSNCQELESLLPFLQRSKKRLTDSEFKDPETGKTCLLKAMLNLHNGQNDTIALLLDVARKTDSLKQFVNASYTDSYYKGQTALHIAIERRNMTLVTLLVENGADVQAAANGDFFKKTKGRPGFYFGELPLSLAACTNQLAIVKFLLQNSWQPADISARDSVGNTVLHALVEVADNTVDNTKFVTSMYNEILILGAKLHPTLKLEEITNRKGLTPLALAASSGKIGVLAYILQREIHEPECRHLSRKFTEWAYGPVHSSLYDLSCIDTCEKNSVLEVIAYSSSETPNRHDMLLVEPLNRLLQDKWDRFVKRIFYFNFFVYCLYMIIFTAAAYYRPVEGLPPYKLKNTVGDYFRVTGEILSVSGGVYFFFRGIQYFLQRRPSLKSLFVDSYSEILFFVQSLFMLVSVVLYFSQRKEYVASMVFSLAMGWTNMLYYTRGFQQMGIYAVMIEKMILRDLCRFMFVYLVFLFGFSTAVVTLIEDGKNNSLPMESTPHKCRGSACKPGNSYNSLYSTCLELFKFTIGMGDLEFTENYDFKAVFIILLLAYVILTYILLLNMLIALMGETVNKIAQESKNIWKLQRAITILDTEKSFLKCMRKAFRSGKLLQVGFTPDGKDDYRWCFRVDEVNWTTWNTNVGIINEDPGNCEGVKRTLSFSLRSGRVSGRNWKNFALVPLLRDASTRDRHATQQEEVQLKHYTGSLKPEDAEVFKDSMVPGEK

## CCCNc1cc(C(F)(F)F)ccc1/C=C/C(=O)N[C@H](C)c1cc(F)c(NS(C)(=O)=O)c(F)c1 [Example 1, (R)—N-[1-(3,5-Difluoro-4-methanesulfonylamino-phenyl)-ethyl]-3-(2-propylamino-4-trifluoromethyl-phenyl)-acrylamide]
[1]; Table 2
  AUC: 1.94 µg·h/mL
  Cmax: 0.466 µg/mL
  Tmax: 3.5 h
[1]; [3]
  half-life: 1.4 h
[2]; [4]
  IC50: 0.019 µM

## CCCc1cc(C(C)(C)C)ccc1/C=C/C(=O)N[C@H](C)c1cc(F)c(NS(C)(=O)=O)c(F)c1 [Comp Cpd E, reference compound]
[1]; [5]
  Cmax: < 0.1 µg/mL
[2]; [6]
  IC50: 2.3 µM

## CCCNc1cc(C(F)(F)F)ccc1/C=C/C(=O)NCc1cc(F)c(NS(C)(=O)=O)c(F)c1 [Example 2, N-(3,5-Difluoro-4-methanesulfonylamino-benzyl)-3-(2-propylamino-4-trifluoromethyl-phenyl)-acrylamide]
[1]; Table 2
  AUC: 7.15 µg·h/mL
  Cmax: 1.42 µg/mL
  Tmax: 2 h
[1]; [3]
  half-life: 3.55 h
[2]; [4]
  IC50: 0.17 µM

## CCCc1cc(C(F)(F)F)ccc1/C=C/C(=O)NCc1cc(F)c(NS(C)(=O)=O)c(F)c1 [Example 22, N-(3,5-Difluoro-4-methanesulfonylamino-benzyl)-3-(2-propyl-4-trifluoromethyl-phenyl)-acrylamide]
[1]; Table 2
  AUC: 19.2 µg·h/mL
  Cmax: 3.66 µg/mL
  Tmax: 2 h
[1]; [3]
  half-life: 2.58 h
[2]; [4]
  IC50: 0.16 µM

## CCCNc1cc(C(C)(C)C)ccc1/C=C/C(=O)NCc1cc(F)c(NS(C)(=O)=O)c(F)c1 [Comp Cpd D, reference compound]
[1]; [5]
  Cmax: < 0.1 µg/mL
[2]; [6]
  IC50: 0.085 µM

## CCCc1cc(C(F)(F)F)ccc1/C=C/C(=O)N[C@H](C)c1cc(F)c(NS(C)(=O)=O)c(F)c1 [Example 21, N-[1-(3,5-Difluoro-4-methanesulfonylamino-phenyl)-ethyl]-3-(2-propyl-4-trifluoromethyl-phenyl)-acrylamide]
[1]; Table 2
  AUC: 16.4 µg·h/mL
  Cmax: 2.72 µg/mL
  Tmax: 2 h
[1]; [3]
  half-life: 3.5 h
[2]; [4]
  IC50: 0.019 µM

## CC(C)(C)c1ccc(/C=C/C(=O)NCc2cc(F)c(NS(C)(=O)=O)c(F)c2)cc1 [Comp Cpd B, reference compound]
[1]; Table 3
  AUC: 0.072 µg·h/mL
  Tmax: 0.5 h
[1]; [5]
  Cmax: 0.069 µg/mL
[1]; Table 3, read-out: T½ (converted)
  half-life: 0.462 h

## C=Cc1cc(CNC(=O)/C=C/c2ccc(C(C)(C)C)cc2)cc(F)c1NS(C)(=O)=O [Comp Cpd A, reference compound]
[1]; [5]
  Cmax: < 0.1 µg/mL

## C[C@@H](NC(=O)/C=C/c1ccc(C(F)(F)F)cc1)c1cc(F)c(NS(C)(=O)=O)c(F)c1 [Comp Cpd G, reference compound]
[1]; oral, in words
  PK properties (in terms of T max and AUC): poor PK-properties
[1]; Table 4, detection limit 0.100 mcg/ml
  Cmax: < 0.1 µg/mL
[2]; Table 4, comparative compounds having CF3-phenyl, read-out: IC50
  IC50: > 10 µM
[2]; [7]
  IC50: > 10 µM

## CCCNc1cc(C(F)(F)F)ccc1/C=C/C(=O)NCc1cc(F)c(NS(C)(=O)=O)c(C#N)c1 [Example 13, N-(3-Cyano-5-fluoro-4-methanesulfonylamino-benzyl)-3-(2-propylamino-4-trifluoromethyl-phenyl)-acrylamide]
[2]; [4]
  IC50: 0.12 µM

## CCNc1cc(F)ccc1/C=C/C(=O)N[C@H](C)c1cc(F)c(NS(C)(=O)=O)c(F)c1 [Example 42, (R)—N-[1-(3,5-Difluoro-4-methanesulfonylamino-phenyl)-ethyl]-3-(2-ethylamino-4-fluoro-phenyl)-acrylamide]
[2]; [4]
  IC50: 0.11 µM

## CC(C)Oc1cc(C(F)(F)F)ccc1/C=C/C(=O)NCc1cc(F)c(NS(C)(=O)=O)c(F)c1 [Example 20, N-(3,5-Difluoro-4-methanesulfonylamino-benzyl)-3-(2-isopropoxy-4-trifluoromethyl-phenyl)-acrylamide]
[2]; [4]
  IC50: 0.15 µM

## CCNc1cc(C(F)(F)F)ccc1/C=C/C(=O)NCc1cc(F)c(NS(C)(=O)=O)c(F)c1 [Example 18, N-(3,5-Difluoro-4-methanesulfonylamino-benzyl)-3-(2-ethylamino-4-trifluoromethyl-phenyl)-acrylamide]
[2]; [4]
  IC50: 0.083 µM

## CCCCc1cc(C(F)(F)F)cc(CCCC)c1/C=C/C(=O)N[C@H](C)c1cc(F)c(NS(C)(=O)=O)c(F)c1 [Example 16, (R)-3-(2,6-Dibutyl-4-trifluoromethyl-phenyl)-N-[1-(3,5-difluoro-4-methanesulfonylamino-phenyl)-ethyl]-acrylamide]
[2]; [4]
  IC50: 0.22 µM

## CCNc1cc(C(F)(F)F)ccc1/C=C/C(=O)N[C@H](C)c1cc(F)c(NS(C)(=O)=O)c(F)c1 [Example 10, (R)—N-[1-(3,5-Difluoro-4-methanesulfonylamino-phenyl)-ethyl]-3-(2-ethylamino-4-trifluoromethyl-phenyl)-acrylamide]
[2]; [4]
  IC50: 0.05 µM

## C=Cc1cc(CNC(=O)/C=C/c2ccc(C(C)(C)C)cc2NC(C)C)cc(F)c1NS(C)(=O)=O [Comp Cpd C, reference compound]
[1]; [5]
  Cmax: < 0.1 µg/mL

## CC(C)Cc1cc(C(F)(F)F)ccc1/C=C/C(=O)N[C@H](C)c1cc(F)c(NS(C)(=O)=O)c(F)c1 [Example 47, (R)—N-[1-(3,5-Difluoro-4-methanesulfonylamino-phenyl)-ethyl]-3-(2-isobutyl-4-trifluoromethyl-phenyl)-acrylamide]
[2]; [4]
  IC50: 0.094 µM

## CCCNc1cc(C(F)(F)F)ccc1/C=C/C(=O)NCc1cc(C)c(NS(C)(=O)=O)c(F)c1 [Example 11, N-(3-Fluoro-4-methanesulfonylamino-5-methyl-benzyl)-3-(2-propylamino-4-trifluoromethyl-phenyl)-acrylamide]
[2]; [4]
  IC50: 0.062 µM

## CS(=O)(=O)Nc1c(F)cc(CNC(=O)/C=C/c2ccc(C(F)(F)F)cc2N2CCCCC2)cc1F [Example 51, N-(3,5-Difluoro-4-methanesulfonylamino-benzyl)-3-(2-piperidin-1-yl-4-trifluoromethyl-phenyl)-acrylamide]
[2]; [4]
  IC50: 3.3 µM

## CCCc1cc(C(F)(F)F)ccc1/C=C/C(=O)N[C@H](C)c1ccc(NS(C)(=O)=O)c(F)c1 [Example 44]
[2]; [4]
  IC50: 0.091 µM

## C=Cc1cc(CNC(=O)/C=C/c2ccc(C(F)(F)F)cc2NCCC)cc(F)c1NS(C)(=O)=O [Example 12, N-(3-Fluoro-4-methanesulfonylamino-5-vinyl-benzyl)-3-(2-propylamino-4-trifluoromethyl-phenyl)-acrylamide]
[2]; [7]
  IC50: 0.15 µM

## CCOc1cc(C(F)(F)F)ccc1/C=C/C(=O)N[C@H](C)c1ccc(NS(C)(=O)=O)c(F)c1 [Example 9, (R)—N-[1-(3-Fluoro-4-methanesulfonylamino-phenyl)-ethyl]-3-(2-ethoxy-4-trifluoromethyl-phenyl)-acrylamide]
[2]; [4]
  IC50: 0.34 µM

## CCCCOc1cc(F)ccc1/C=C/C(=O)NCc1cc(F)c(NS(C)(=O)=O)c(F)c1 [Example 34, 3-(2-Butoxy-4-fluoro-phenyl)-N-(3,5-difluoro-4-methanesulfonylamino-benzyl)-acrylamide]
[2]; [4]
  IC50: 0.98 µM

## CCCCOc1cc(C(F)(F)F)ccc1/C=C/C(=O)N[C@H](C)c1cc(F)c(NS(C)(=O)=O)c(F)c1 [Example 31, (R)-3-(2-Butoxy-4-trifluoromethyl-phenyl)-N-[1-(3,5-difluoro-4-methanesulfonylamino-phenyl)-ethyl]-acrylamide]
[2]; [4]
  IC50: 0.11 µM

## CCCc1cc(C(F)(F)F)ccc1/C=C(\C)C(=O)N[C@H](C)c1cc(F)c(NS(C)(=O)=O)c(F)c1 [Example 48, (R)—N-[1-(3,5-Difluoro-4-methanesulfonylamino-phenyl)-ethyl]-2-methyl-3-(2-propyl-4-trifluoromethyl-phenyl)-acrylamide]
[2]; [4]
  IC50: 0.53 µM

## CCOc1cc(C(F)(F)F)ccc1/C=C/C(=O)NCc1cc(F)c(NS(C)(=O)=O)c(C(F)(F)F)c1 [Example 15, 3-(2-Ethoxy-4-trifluoromethyl-phenyl)-N-(3-fluoro-4-methanesulfonylamino-5-trifluoromethyl-benzyl)-acrylamide]
[2]; [4]
  IC50: 2.4 µM

## CCNc1cc(C(F)(F)F)ccc1/C=C/C(=O)NCc1cc(C)c(NS(C)(=O)=O)c(F)c1 [Example 19, 3-(2-Ethylamino-4-trifluoromethyl-phenyl)-N-(3-fluoro-4-methanesulfonylamino-5-methyl-benzyl)-acrylamide]
[2]; [4]
  IC50: 0.16 µM

## CCCOc1cc(F)ccc1/C=C/C(=O)NCc1cc(F)c(NS(C)(=O)=O)c(F)c1 [Example 28, N-(3,5-Difluoro-4-methanesulfonylamino-benzyl)-3-(4-fluoro-2-propoxy-phenyl)-acrylamide]
[2]; [4]
  IC50: 1.1 µM
